Test results from patent publication US7807720B2 (priority 2007, dated 2010).

Target: Bacillus anthracis lethal factor protease (Bacillus anthracis, UniProt P15917)
Assay: biochemical

Sequence of Bacillus anthracis lethal factor protease (P15917 34-809 limits assumed): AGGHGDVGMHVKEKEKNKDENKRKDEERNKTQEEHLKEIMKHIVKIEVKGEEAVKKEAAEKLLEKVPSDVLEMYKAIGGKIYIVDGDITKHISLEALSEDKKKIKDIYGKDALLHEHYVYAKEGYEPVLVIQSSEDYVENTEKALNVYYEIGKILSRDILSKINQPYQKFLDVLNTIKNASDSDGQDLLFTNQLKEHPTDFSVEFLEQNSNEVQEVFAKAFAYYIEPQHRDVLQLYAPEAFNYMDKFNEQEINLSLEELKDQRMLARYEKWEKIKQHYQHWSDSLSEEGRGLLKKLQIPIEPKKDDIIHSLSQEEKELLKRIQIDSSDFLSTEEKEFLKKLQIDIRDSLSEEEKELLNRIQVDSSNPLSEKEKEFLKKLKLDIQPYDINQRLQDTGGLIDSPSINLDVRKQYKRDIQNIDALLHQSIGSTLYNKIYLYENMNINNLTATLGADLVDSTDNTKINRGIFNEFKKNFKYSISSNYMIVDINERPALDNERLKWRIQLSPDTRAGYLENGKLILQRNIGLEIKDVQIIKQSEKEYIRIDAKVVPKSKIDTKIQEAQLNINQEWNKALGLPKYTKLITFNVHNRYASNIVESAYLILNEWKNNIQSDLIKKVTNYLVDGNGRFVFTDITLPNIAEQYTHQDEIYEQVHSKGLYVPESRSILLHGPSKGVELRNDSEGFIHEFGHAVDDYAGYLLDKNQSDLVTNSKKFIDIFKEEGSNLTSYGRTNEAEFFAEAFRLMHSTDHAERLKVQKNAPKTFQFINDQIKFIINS

Compound	Ki
Cc1cc(C[C@H](CCCCCC(C)C)C(=O)NO)cc(C)c1F [Compound 168031, (S)-2-(4-Fluoro-3,5-dimethyl-benzyl)-8-methyl-nonanoic acid hydroxyamide]	2660 nM
Cc1cc(C[C@H](CCCCNCc2cnccn2)C(=O)NO)cc(C)c1F [Compound 168179, (S)-2-(4-Fluoro-3,5-dimethyl-benzyl)-6-[(pyrazin-2-ylmethyl)-amino]-hexanoic acid hydroxyamide]	710 nM
Cc1cc(CC(C#N)C(=O)NO)cc(C)c1F (centres unmarked) [Compound 167914, 2-Cyano-3-(4-fluoro-3,5-dimethyl-phenyl)-N-hydroxy-propionamide]	47500 nM
Cc1cc(C[C@@H](C(=O)NO)c2ccc(Br)cc2)cc(C)c1F [Compound 168009, (R)-2-(4-Bromo-phenyl)-3-(4-fluoro-3,5-dimethyl-phenyl)-N-hydroxy-propionamide]	770 nM
Cc1cc(CC(CCN(C)CCCc2ccc(F)cc2)C(=O)NO)cc(C)c1F (stereo in doubt) [Compound 168172, (S)-2-(4-Fluoro-3,5-dimethyl-benzyl)-4-{[3-(4-fluoro-phenyl)-propyl]-methyl-amino}-N-hydroxy-butyramide]	290 nM
Cc1cc(C[C@H](CCCCNCc2cccc(-c3ccccc3)c2)C(=O)NO)ccc1F [Compound 168140, (S)-6-[(Biphenyl-3-ylmethyl)-amino]-2-(4-fluoro-3-methyl-benzyl)-hexanoic acid hydroxyamide]	700 nM
CCCCC(Cc1ccc(F)c(C)c1)C(=O)NO (centres unmarked) [Compound 167266, 2-(4-Fluoro-3-methyl-benzyl)-hexanoic acid hydroxyamide]	2300 nM
Cc1cc(C[C@H](C(=O)NO)c2ccc(Br)cc2)cc(C)c1F [Compound 167973, (S)-2-(4-Bromo-phenyl)-3-(4-fluoro-3,5-dimethyl-phenyl)-N-hydroxy-propionamide]	5700 nM
Cc1cc(C[C@H](CCCCNCCc2ccc(F)cc2)C(=O)NO)cc(C)c1F [Compound 168122, (S)-2-(4-Fluoro-3,5-dimethyl-benzyl)-6-[2-(4-fluoro-phenyl)-ethylamino]-hexanoic acid hydroxyamide]	65 nM
Cc1cc(CCC(=O)NO)cc(C)c1F [Compound 167857, 3-(4-Fluoro-3,5-dimethyl-phenyl)-N-hydroxy-propionamide]	1340 nM
Cc1cc(C[C@H](CCCCNCc2ccc(Cl)cc2)C(=O)NO)cc(C)c1F [Compound 168125, (S)-6-(4-Chloro-benzylamino)-2-(4-fluoro-3,5-dimethyl-benzyl)-hexanoic acid hydroxyamide]	190 nM
CCCCC(Cc1cc(C)c(F)c(C)c1)C(=O)NO (centres unmarked) [Compound 167533, 2-(4-Fluoro-3,5-dimethyl-benzyl)-hexanoic acid hydroxyamide]	1200 nM
Cc1cc(C[C@H](CCCCNCc2ccccc2)C(=O)NO)cc(C)c1F [Compound 168149, (S)-6-Benzylamino-2-(4-fluoro-3,5-dimethyl-benzyl)-hexanoic acid hydroxyamide]	130 nM
Cc1cc(C[C@H](CCCCNc2ccc(F)cc2)C(=O)NO)cc(C)c1F [Compound 168132, (S)-2-(4-Fluoro-3,5-dimethyl-benzyl)-6-(4-fluoro-phenylamino)-hexanoic acid hydroxyamide]	2240 nM
Cc1cc(CNCCCC[C@@H](Cc2ccc(F)c(C)c2)C(=O)NO)ccc1F [Compound 168139, (S)-2-(4-Fluoro-3-methyl-benzyl)-6-(4-fluoro-3-methyl-benzylamino)-hexanoic acid hydroxyamide]	280 nM
Cc1cc(C[C@H](CCCCNCC2CCCCC2)C(=O)NO)cc(C)c1F [Compound 168170, (S)-6-(Cyclohexylmethyl-amino)-2-(4-fluoro-3,5-dimethyl-benzyl)-hexanoic acid hydroxyamide]	400 nM
Cc1cc(CNCCCC[C@@H](Cc2cc(C)c(F)c(C)c2)C(=O)NO)ccc1F [Compound 168050, (S)-2-(4-Fluoro-3,5-dimethyl-benzyl)-6-(4-fluoro-3-methyl-benzylamino)-hexanoic acid hydroxyamide]	74 nM
O=C(NO)[C@@H](CCCCNCc1ccc(F)cc1)Cc1ccc(F)c(Cl)c1 [Compound 168164, (S)-2-(3-Chloro-4-fluoro-benzyl)-6-(4-fluoro-benzylamino)-hexanoic acid hydroxyamide]	200 nM

Compound	Ki
Cc1cc(C[C@H](CCCCNCc2cc3ccccc3s2)C(=O)NO)cc(C)c1F [Compound 168180, (S)-6-[(Benzo[b]thiophen-2-ylmethyl)-amino]-2-(4-fluoro-3,5-dimethyl-benzyl)-hexanoic acid hydroxyamide]	400 nM
Cc1cc(C[C@@H](CCC/C=C/C(C)C)C(=O)NO)cc(C)c1F [Compound 168051, (R)-2-(4-Fluoro-3,5-dimethyl-benzyl)-8-methyl-non-6-enoic acid hydroxyamide]	51600 nM
Cc1cc(C[C@H](CCCCN(C)Cc2ccc(F)cc2)C(=O)NO)cc(C)c1F [Compound 168126, (S)-6-[(4-Fluoro-benzyl)-methyl-amino]-2-(4-fluoro-3,5-dimethyl-benzyl)-hexanoic acid hydroxyamide]	550 nM
Cc1cc(CCCN(C)CC[C@@H](Cc2ccc(Cl)cc2)C(=O)NO)cc(C)c1F [Compound 168156, 2R-(4-Chloro-benzyl)-4-{[3-(4-fluoro-3,5-dimethyl-phenyl)-propyl]-methyl-amino}-N-hydroxy-butyramide]	3290 nM
Cc1cc(C[C@H](CCCCNCCCc2ccc(F)cc2)C(=O)NO)cc(C)c1F [Compound 168123, (S)-2-(4-Fluoro-3,5-dimethyl-benzyl)-6-[3-(4-fluoro-phenyl)-propylamino]-hexanoic acid hydroxyamide]	47 nM
Cc1cc(COCCCC[C@@H](Cc2cc(C)c(F)c(C)c2)C(=O)NO)ccc1F [Compound 168141, (S)-2-(4-fluoro-3,5-dimethylbenzyl)-6-(4-fluoro-3-methylbenzyloxy)-N-hydroxyhexanamide]	3600 nM
Cc1cc(CCCCCC[C@@H](Cc2ccc(Cl)cc2)C(=O)NO)ccc1F [Compound 168134, (S)-2-(4-Chloro-benzyl)-8-(4-fluoro-3-methyl-phenyl)-octanoic acid hydroxyamide]	64500 nM
Cc1cc(C[C@H](CCCCNCc2ccc3c(c2)OCO3)C(=O)NO)cc(C)c1F [Compound 168148, (S)-6-[(Benzo[1,3]dioxol-5-ylmethyl)-amino]-2-(4-fluoro-3,5-dimethyl-benzyl)-hexanoic acid hydroxyamide]	220 nM
Cc1cc(CC(C)C(=O)NO)cc(C)c1F (centres unmarked) [Compound 167858, 2-(4-fluoro-3,5-dimethylbenzyl)-N-hydroxypropanamide]	400 nM
Cc1cc(CCCN(C)CC[C@@H](Cc2ccc(Cl)cc2)C(=O)NO)ccc1F [Compound 168150, 2R-(4-Chloro-benzyl)-4-{[3-(4-fluoro-3-methyl-phenyl)-propyl]-methyl-amino}-N-hydroxy-butyramide]	1750 nM
Cc1cc(C[C@@H](CCCCCC(C)C)C(=O)NO)cc(C)c1F [Compound 168052, (R)-2-(4-Fluoro-3,5-dimethyl-benzyl)-8-methyl-nonanoic acid hydroxyamide]	300000 nM
Cc1cc(CC(C(=O)NO)c2ccc(Br)cc2)cc(C)c1F (centres unmarked) [Compound 167856, 2-(4-Bromo-phenyl)-3-(4-fluoro-3,5-dimethyl-phenyl)-N-hydroxy-propionamide]	620 nM
Cc1cc(CCCCCC[C@@H](Cc2cc(C)c(F)c(C)c2)C(=O)NO)ccc1F [Compound 168124, (S)-2-(4-Fluoro-3,5-dimethyl-benzyl)-8-(4-fluoro-3-methyl-phenyl)-octanoic acid hydroxyamide]	10300 nM
Cc1cc(C[C@H](CCC/C=C/C(C)C)C(=O)NO)cc(C)c1F [Compound 168023, (S)-2-(4-Fluoro-3,5-dimethyl-benzyl)-8-methyl-non-6-enoic acid hydroxyamide]	1970 nM
CCC(CC)CNCCCC[C@@H](Cc1cc(C)c(F)c(C)c1)C(=O)NO [Compound 168171, (S)-6-(2-Ethyl-butylamino)-2-(4-fluoro-3,5-dimethyl-benzyl)-hexanoic acid hydroxyamide]	250 nM
Cc1ccc(CNCCCC[C@@H](Cc2cc(C)c(F)c(C)c2)C(=O)NO)o1 [Compound 168157, (S)-2-(4-Fluoro-3,5-dimethyl-benzyl)-6-[(5-methyl-furan-2-ylmethyl)-amino]-hexanoic acid hydroxyamide]	130 nM
CCCC[C@@H](Cc1ccccc1)C(=O)NO (stereo in doubt) [Compound 167550, 2-Benzyl-hexanoic acid hydroxyamide]	65200 nM
